“Also recorded” adds a separate entry of the source. Bridge positions count the residues as written; N and C are the ends. Square brackets hold non-standard residues; d marks the D form. Peptide text beside a SMILES is read from it.
How the values were obtained:
α2 = molecular target: T1, α2 (Homo sapiens, UniProt P17301); experiment: Staining of α2 transfected K562 cells with biotinylated peptide and streptavidin-PE (flow cytometry); type: binding; details: 1 μM LXW7-Bio, Streptavidin-PE
T1 construct: expressed in transfected cells; host or cells: K562 (gift of Dr. Yoshikazu Takada)
Procedure: (§1) After one time wash, samples were tested. […] Then the specific binding equaled to substraction of nonspecific binding from total binding and Kds were analyzed.
(§2) To test the specificity of LXW7, LXW7 was prepared in biotinylated form and incubated with α1, α2, α3, α4, α6, α9, αIIbβ3 and αvβ3 transfected K562 and parent K562 cells (α5β1), followed by incubation with streptavidin-PE. […] The binding affinities of LXW7 and these cyclic RGD pentapeptides against αvβ3 integrin were compared based on their ability to inhibit FITC-Echistatin binding with αvβ3-K562.

αvβ3 integrin [1] = molecular target: T2, αvβ3 integrin (Homo sapiens, UniProt P05106+P06756); experiment: Equilibrium binding of LXW7-Bio to αvβ3-K562 cells (flow cytometry); parameters: expressed in transfected cells; host or cells: K562 (gift of Dr. Yoshikazu Takada, UC Davis)
T2 sequence (P06756 31-889 limits assumed): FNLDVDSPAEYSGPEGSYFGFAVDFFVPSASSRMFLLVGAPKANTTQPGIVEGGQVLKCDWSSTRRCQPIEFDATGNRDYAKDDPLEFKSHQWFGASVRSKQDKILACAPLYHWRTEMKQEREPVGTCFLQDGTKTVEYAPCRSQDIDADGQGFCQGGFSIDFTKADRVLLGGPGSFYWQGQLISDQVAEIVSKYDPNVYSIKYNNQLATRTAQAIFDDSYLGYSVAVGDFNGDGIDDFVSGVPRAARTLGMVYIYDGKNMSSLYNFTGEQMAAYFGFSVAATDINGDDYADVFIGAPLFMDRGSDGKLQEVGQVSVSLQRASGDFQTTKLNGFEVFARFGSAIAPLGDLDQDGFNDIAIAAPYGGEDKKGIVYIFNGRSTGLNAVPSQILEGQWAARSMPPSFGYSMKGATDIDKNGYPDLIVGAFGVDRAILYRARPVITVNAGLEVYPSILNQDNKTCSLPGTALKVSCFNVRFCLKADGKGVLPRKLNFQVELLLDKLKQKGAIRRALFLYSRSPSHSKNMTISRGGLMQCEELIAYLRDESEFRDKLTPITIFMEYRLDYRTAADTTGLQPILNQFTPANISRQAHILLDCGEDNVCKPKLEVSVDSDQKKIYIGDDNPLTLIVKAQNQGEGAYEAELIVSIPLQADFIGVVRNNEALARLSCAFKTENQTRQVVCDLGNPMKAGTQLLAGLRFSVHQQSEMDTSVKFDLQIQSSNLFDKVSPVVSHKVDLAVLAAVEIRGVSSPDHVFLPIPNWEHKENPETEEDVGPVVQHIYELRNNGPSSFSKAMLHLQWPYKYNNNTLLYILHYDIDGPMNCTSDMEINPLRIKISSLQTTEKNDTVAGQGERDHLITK
T2 sequence (P06756 891-1048 partner limits assumed): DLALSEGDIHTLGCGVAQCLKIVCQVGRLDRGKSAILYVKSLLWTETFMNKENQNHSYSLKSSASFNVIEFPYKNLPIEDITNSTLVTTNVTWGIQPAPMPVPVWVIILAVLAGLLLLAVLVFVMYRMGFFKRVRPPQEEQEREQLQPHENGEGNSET
T2 sequence (P05106 27-788): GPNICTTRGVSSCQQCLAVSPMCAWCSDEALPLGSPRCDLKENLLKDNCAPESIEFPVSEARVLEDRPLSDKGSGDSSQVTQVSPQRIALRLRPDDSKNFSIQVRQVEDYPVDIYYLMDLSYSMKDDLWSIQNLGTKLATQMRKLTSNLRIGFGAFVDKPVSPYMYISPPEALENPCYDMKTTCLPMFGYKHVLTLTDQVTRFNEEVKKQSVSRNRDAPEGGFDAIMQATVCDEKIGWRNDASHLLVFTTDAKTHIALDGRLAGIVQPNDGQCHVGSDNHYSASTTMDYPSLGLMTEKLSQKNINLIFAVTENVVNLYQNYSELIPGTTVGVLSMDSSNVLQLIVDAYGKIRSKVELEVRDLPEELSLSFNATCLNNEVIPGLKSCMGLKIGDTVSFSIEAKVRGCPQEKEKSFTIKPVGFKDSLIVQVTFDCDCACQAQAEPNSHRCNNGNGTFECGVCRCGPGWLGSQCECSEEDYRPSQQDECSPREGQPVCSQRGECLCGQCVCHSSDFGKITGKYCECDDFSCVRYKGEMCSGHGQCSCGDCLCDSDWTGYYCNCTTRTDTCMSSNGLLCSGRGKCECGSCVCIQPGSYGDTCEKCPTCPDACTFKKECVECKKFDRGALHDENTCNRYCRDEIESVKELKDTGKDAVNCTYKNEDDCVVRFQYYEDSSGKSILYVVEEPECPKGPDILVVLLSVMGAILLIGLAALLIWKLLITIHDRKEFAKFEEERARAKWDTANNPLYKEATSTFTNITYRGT
Procedure: as §1
(§3) The samples were analyzed with Coulter XL-MCL flow cytometry. The histogram and mean fluorescence intensity (MFI) were determined. The apparent Kd, IC50 were calculated using Graph Prism software (≦www.graphpad.com≧).

α1 = molecular target: T3, α1 (Homo sapiens, UniProt P56199); experiment: Staining of α1 transfected K562 cells with biotinylated peptide and streptavidin-PE (flow cytometry); type: binding; details: 1 μM LXW7-Bio, Streptavidin-PE
T3 construct: expressed in transfected cells; host or cells: K562 (gift of Dr. Yoshikazu Takada)
T3 sequence (P56199 29-1179): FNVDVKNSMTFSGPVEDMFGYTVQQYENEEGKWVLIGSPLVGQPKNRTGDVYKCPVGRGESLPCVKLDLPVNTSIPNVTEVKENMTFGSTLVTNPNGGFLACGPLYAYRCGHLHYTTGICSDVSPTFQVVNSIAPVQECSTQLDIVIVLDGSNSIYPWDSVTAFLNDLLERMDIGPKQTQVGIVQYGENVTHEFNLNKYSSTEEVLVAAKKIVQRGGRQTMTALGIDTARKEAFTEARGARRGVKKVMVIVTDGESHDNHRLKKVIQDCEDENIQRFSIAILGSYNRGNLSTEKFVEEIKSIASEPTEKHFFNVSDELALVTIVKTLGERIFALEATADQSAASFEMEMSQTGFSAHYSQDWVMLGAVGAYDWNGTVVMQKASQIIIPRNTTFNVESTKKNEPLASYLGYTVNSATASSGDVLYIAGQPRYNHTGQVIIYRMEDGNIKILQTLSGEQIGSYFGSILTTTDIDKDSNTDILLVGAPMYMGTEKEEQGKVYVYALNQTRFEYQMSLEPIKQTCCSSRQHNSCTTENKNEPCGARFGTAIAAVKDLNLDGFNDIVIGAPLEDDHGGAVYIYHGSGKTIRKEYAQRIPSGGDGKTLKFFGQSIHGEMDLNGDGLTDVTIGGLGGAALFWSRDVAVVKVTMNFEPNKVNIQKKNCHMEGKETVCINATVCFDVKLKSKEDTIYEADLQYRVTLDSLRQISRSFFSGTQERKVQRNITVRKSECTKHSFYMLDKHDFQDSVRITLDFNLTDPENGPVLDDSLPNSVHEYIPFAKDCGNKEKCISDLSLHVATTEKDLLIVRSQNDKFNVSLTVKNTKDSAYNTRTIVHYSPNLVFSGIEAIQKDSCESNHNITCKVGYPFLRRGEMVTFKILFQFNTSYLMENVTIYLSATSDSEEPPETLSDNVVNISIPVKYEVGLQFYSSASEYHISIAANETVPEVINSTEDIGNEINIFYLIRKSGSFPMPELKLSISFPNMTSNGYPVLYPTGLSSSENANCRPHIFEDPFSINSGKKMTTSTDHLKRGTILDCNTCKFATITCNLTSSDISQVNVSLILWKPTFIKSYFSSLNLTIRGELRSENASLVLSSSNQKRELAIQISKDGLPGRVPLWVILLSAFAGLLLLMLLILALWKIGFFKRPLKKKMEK
T3 sequence (P05556 21-798 partner): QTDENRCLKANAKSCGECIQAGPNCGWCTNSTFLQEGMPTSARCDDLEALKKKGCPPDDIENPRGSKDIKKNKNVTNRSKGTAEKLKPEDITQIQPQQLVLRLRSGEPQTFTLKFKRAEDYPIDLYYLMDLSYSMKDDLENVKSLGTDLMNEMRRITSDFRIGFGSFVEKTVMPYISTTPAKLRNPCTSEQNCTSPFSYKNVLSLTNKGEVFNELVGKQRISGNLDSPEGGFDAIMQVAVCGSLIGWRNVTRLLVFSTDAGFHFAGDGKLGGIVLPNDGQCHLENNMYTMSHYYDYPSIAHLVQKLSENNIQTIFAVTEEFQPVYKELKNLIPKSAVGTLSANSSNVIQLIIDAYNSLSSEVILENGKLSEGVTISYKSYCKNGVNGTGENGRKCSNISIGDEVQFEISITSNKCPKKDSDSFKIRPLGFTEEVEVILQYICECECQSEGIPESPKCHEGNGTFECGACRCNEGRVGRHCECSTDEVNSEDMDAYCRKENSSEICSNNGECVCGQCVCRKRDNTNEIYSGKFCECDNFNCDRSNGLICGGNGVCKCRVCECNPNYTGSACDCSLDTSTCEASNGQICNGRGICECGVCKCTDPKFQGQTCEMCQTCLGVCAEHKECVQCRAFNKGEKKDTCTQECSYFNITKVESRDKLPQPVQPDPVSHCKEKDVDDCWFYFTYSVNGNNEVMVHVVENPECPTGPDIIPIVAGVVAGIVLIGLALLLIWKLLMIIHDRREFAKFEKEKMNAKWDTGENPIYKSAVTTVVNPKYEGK
Procedure: as §1, §2

αIIbβ3 = molecular target: T4, αIIbβ3 (Homo sapiens, UniProt P05106+P08514); experiment: Staining of αIIbβ3 transfected K562 cells with biotinylated peptide and streptavidin-PE (flow cytometry); type: binding; details: 1 μM biotinylated peptide, Streptavidin-PE
T4 construct: expressed in transfected cells; host or cells: K562 (gift of Dr. Jennifer Cochran and Dr. Scott D. Blystone)
Procedure: as §1, §2

α3 = molecular target: T5, α3 (Homo sapiens, UniProt P05556+P26006); experiment: Staining of α3 transfected K562 cells with biotinylated peptide and streptavidin-PE (flow cytometry); type: binding; details: 1 μM LXW7-Bio, Streptavidin-PE
T5 construct: expressed in transfected cells; host or cells: K562 (gift of Dr. Yoshikazu Takada)
Procedure: as §1, §2

αvβ3 integrin [2] = molecular target: T2, αvβ3 integrin; experiment: Inhibition of FITC-Echistatin binding to αvβ3-K562 cells (flow cytometry); parameters: expressed in transfected cells; host or cells: K562 (gift of Dr. Yoshikazu Takada, UC Davis)
Procedure: as §3

αvβ3 integrin [3] = molecular target: T2, αvβ3 integrin; experiment: Equilibrium binding and antibody blocking of LXW7-Bio on A375M melanoma cells (flow cytometry); parameters: host or cells: A375M (A4); U-87MG (A5)
Procedure: as §1, §3

αvβ3 integrin [4] = molecular target: T2, αvβ3 integrin; experiment: Inhibition of biotinylated LXW7 binding to αvβ3-K562 cells (flow cytometry); parameters: expressed in transfected cells; host or cells: K562 (gift of Dr. Yoshikazu Takada, UC Davis); details: LXW9-92: inhibiting the binding of biotinylated LXW7 against αvβ3-K562 cells, LXW7 as internal reference
Procedure: The apparent IC50 were calculated using Graph Prism software (≦www.graphpad.com≧).
as §3

αvβ3 = molecular target: T6, αvβ3 (Homo sapiens, UniProt P05106+P06756); experiment: Staining of αvβ3 transfected K562 cells with biotinylated peptide and streptavidin-PE (flow cytometry); type: binding; details: 1 μM biotinylated peptide, Streptavidin-PE
T6 construct: expressed in transfected cells; host or cells: K562 (gift of Dr. Yoshikazu Takada, UC Davis)
T6 sequence (P06756 31-889 limits assumed): as the sequence (P06756 31-889 limits assumed) above
T6 sequence (P06756 891-1048 partner limits assumed): as the sequence (P06756 891-1048 partner limits assumed) above
T6 sequence (P05106 27-788): as the sequence (P05106 27-788) above
Procedure: as §1, §2

α9 = molecular target: T7, α9 (Homo sapiens, UniProt P05556+Q13797); experiment: Staining of α9 transfected K562 cells with biotinylated peptide and streptavidin-PE (flow cytometry); type: binding; details: 1 μM LXW7-Bio, Streptavidin-PE
T7 construct: expressed in transfected cells; host or cells: K562 (gift of Dr. Yoshikazu Takada)
Procedure: as §1, §2

αvβ3 integrin [5] = molecular target: T2, αvβ3 integrin; experiment: Equilibrium binding and antibody blocking of LXW7-Bio on U-87 MG glioblastoma cells (flow cytometry); parameters: host or cells: U-87MG (A5)
Procedure: as §1, §3

U-87 MG xenograft = experiment: In vivo and ex vivo near infra red fluorescent imaging, U-87 MG xenograft; parameters: species or system nude mice; details: complex of Streptavidin-Cy5.5 with biotinylated peptide, 6 hrs after tail vein injection
Procedure: Animal studies were performed according to a protocol approved by IACUC of the University of California, Davis.
Animals were placed on a sheet of transparency in different position. […] Images were captured with a CCD camera set at F stop=0, FOV=150, and FP=0. Six hours post injection of imaging complex, the mice were conducted in vivo imaging, then were sacrificed and organs were excised for ex vivo imaging.

α4 = molecular target: T8, α4 (Homo sapiens, UniProt P05556+P13612); experiment: Staining of α4 transfected K562 cells with biotinylated peptide and streptavidin-PE (flow cytometry); type: binding; details: 1 μM LXW7-Bio, Streptavidin-PE
T8 construct: expressed in transfected cells; host or cells: K562 (gift of Dr. Yoshikazu Takada)
Procedure: as §1, §2

α5β1 = molecular target: T9, α5β1 (Homo sapiens, UniProt P05556+P08648); experiment: Staining of parent K562 cells (α5β1) with biotinylated peptide and streptavidin-PE (flow cytometry); type: binding; details: 1 μM biotinylated peptide, Streptavidin-PE
T9 construct: host or cells: parent (non-transfected) K562
Procedure: as §1, §2

α6 = molecular target: T10, α6 (Homo sapiens, UniProt P05556+P23229); experiment: Staining of α6 transfected K562 cells with biotinylated peptide and streptavidin-PE (flow cytometry); type: binding; details: 1 μM LXW7-Bio, Streptavidin-PE
T10 construct: expressed in transfected cells; host or cells: K562 (gift of Dr. Yoshikazu Takada)
T10 sequence (P23229 24-938 limits assumed): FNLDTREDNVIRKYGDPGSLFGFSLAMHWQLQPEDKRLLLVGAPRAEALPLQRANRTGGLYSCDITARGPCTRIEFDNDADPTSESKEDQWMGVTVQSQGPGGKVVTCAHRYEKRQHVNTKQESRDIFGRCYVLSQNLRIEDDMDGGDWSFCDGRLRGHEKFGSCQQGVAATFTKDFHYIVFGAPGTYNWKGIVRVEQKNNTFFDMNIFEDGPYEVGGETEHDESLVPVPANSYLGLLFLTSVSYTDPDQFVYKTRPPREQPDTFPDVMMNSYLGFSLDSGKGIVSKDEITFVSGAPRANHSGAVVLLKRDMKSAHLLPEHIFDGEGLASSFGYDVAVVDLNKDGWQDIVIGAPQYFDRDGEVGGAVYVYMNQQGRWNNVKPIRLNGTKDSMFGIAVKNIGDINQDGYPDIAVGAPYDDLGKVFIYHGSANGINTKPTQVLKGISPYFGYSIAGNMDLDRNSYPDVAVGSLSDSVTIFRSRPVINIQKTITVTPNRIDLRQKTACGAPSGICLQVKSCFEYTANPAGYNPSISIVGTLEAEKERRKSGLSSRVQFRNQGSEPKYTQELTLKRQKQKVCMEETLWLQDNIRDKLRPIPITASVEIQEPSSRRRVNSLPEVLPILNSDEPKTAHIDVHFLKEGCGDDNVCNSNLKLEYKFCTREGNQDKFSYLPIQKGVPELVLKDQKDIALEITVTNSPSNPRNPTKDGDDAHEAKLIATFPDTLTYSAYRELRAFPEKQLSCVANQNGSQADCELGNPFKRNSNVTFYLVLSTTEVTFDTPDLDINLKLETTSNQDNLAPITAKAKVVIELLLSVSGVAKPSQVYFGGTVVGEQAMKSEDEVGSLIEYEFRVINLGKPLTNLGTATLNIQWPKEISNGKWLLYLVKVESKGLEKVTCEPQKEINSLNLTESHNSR
T10 sequence (P23229 942-1130 partner limits assumed): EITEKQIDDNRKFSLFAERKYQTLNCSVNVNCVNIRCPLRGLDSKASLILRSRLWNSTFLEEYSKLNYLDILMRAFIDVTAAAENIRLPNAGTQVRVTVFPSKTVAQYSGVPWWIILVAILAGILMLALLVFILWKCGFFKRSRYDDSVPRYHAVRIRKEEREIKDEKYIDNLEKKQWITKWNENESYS
T10 sequence (P05556 21-798): as the sequence (P05556 21-798 partner) above
Procedure: as §1, §2

[6] = 10 μg LM609 premixed with 1 μM LXW7-Bio

CC(C)[C@H]1NC(=O)[C@@H](CC(=O)O)NC(=O)[C@H](CC(=O)O)NC(=O)CNC(=O)[C@H](CCCNC(=N)N)NC(=O)CNC(=O)[C@H](N)CSSC[C@H](C(N)=O)NC1=O [LXW7, cGRGDdvc] (H-[dC]GRGD[dD][dV][dC]-NH2; disulfide 1-8)
binding with α2 (α2): no binding; also recorded: not at all
Bmax (A.U) (αvβ3 integrin [1]): 1394 ± 57 A.U
Kd (αvβ3 integrin [1]): 0.076 ± 0.01 µM
binding with α1 (α1): no binding; also recorded: not at all
binding with αIIbβ3 (αIIbβ3): weak cross-reaction; also recorded: weakly
binding with α3 (α3): no binding; also recorded: not at all
binding strength to αvβ3 integrin, biotinylated versus non-biotinylated, in words (αvβ3 integrin [2]): near identical binding strength
IC50 (αvβ3 integrin [2]; LXW1-8: inhibition of binding of FITC-Echistatin against αvβ3-K562, class symbols, read-out: IC50): < 1 µM
binding to A375M cells in presence of anti-αvβ3 antibody (LM609) (αvβ3 integrin [3]; [6]): markedly blocked
Bmax (A.U) (αvβ3 integrin [3]; A375M): 71 ± 4 A.U
Kd (αvβ3 integrin [3]; A375M): 0.089 ± 0.008 µM
IC50 (αvβ3 integrin [4]): 0.59 µM
binding with αvβ3 (αvβ3): strong positive binding; also recorded: strongly bound
binding with α9 (α9): no binding; also recorded: not at all
binding to U-87 MG cells in presence of anti-αvβ3 antibody (LM609) (αvβ3 integrin [5]; [6]): markedly blocked
Bmax (A.U) (αvβ3 integrin [5]; U-87 MG): 86 ± 4 A.U
Kd (αvβ3 integrin [5]; U-87 MG): 0.072 ± 0.015 µM
liver uptake, ex vivo imaging (U-87 MG xenograft): low
tumor uptake, ex vivo imaging (U-87 MG xenograft): high
binding with α4 (α4): no binding
binding with α5β1 (α5) (α5β1): no binding; also recorded: not at all
binding with α6 (α6): no binding; also recorded: not at all

Source: US9073974B2, “RGD-containing cyclic peptides” (The Regents of the University of California, priority 2009, dated 2015)
